The text below walks through data of PMC8624038, “Understanding the Mechanism of Action of NAI-112, a Lanthipeptide with Potent Antinociceptive Activity” (Molecules, 2021).

Like-named read-outs stand apart in the source and are kept apart here.

Assay [1] relates to S. aureus ATCC6538P (wt). The assay can be described thus: microbe, parasite or virus in culture. The format is cell-based, Staphylococcus aureus. Conditions: 24 h. As to the method: (§1) All experiments were performed with S. aureus ATCC6538P. The strain was propagated at 37 °C in Mueller–Hinton Broth (BD Difco^TM) containing 20 mg/L of CaCl2 and 10 mg/L of MgCl2 (MHBC medium). For selection of resistant strains by direct plating, S. aureus cultures were grown until OD600 of 0.7, corresponding to 5 × 10^8 CFU/mL, centrifuged, and resuspended with fresh medium to 1 × 10^10 CFU/mL. Then, 100 µL were spread on Muller–Hinton Agar (BD Difco^TM) supplemented with 160 µg/mL or 640 µg/mL of NAI-112 and incubated at 37 °C. Colonies were scored after 10 days. For selection of resistant mutants by serial passages, MHBC medium containing serial, twofold dilutions of NAI-112, starting from 512 µg/mL down to 0.5 µg/mL, was inoculated with 1 × 10^5 CFU/mL in a 96-well microtiter plate. Cultures were incubated overnight at 37 °C. The culture at the highest concentration that supported growth was diluted to 1 × 10^5 CFU/mL with fresh medium and added to a fresh plate containing serial dilutions of NAI-112 as before, followed by overnight incubation. This process was continued for 15 passages. From cultures at passage 8 (grown at 64 µg/mL) and passage 15 (grown at 256 µg/mL), single colonies were isolated and named R8.1 and R8.2 (from the eighth series) and R15.1–15.5 (from the fifteenth series).
(§2) MICs were determined by the broth microdilution methodology in sterile 96-well microtiter plates according to Clinical and Laboratory Standards Institute (CLSI) guidelines, as described by Iorio et al.. When indicated, bovine serum albumin was added to MHBC medium at 0.02% (w/v). […] Growth curves were measured under the same conditions by recording the optical density at 595 nm (OD595) over 20 h using a Synergy 2.0 plate reader (BioTeck, Winooski, VT, USA).

Assay [2] deals with S. aureus mutant strain R15.5. The assay can be described thus: microbe, parasite or virus in culture. The format is cell-based, Staphylococcus aureus. Conditions: for MIC: 24 h; for MIC Ratio (R15.1 to wt): ratio of MICs, mutant to wt. As to the method:
as §1, §2

The test system of assay [3] is S. aureus mutant strain R8.1. Nature of the assay: microbe, parasite or virus in culture. The format is cell-based, Staphylococcus aureus. Conditions: for MIC: 24 h. As to the method: as §1, §2
For assay [4] the following is noted: cited from earlier work.
For assay [5] the following is noted: class II lantibiotics; ref [29],[30],[31],[32]; cited from earlier work. The source says: A few studies have identified the molecular targets of lanthipeptides. […] Two-peptide lantibiotics, ...
In assay [6] the test system is neuropathic pain. Conditions: ref [7]; cited from earlier work. The source says: (§3) NAI-112 is a labionine (Lab)-containing lanthipeptide with a glycosylated tryptophan residue and an unusual methyl-Lab bridge. It was discovered in a phenotypic screening program for inhibitors of bacterial cell wall biosynthesis. […] At the time of its discovery, there was only one precedent of Lab-containing lanthipeptides, the labyrinthopeptins. In particular, despite having unrelated amino acid sequences, NAI-112 and labyrinthopeptin A2 share a similar ri ...

In assay [7] the test system is virus. Conditions: ref [7]; cited from earlier work.
Text: as §3

Assay [8] relates to TRPV1. Conditions: cited from earlier work. The source says:
In mice, this interference translates in lower LPA levels.

In assay [9] the test system is TRPV1. Conditions: ref [24], cited from earlier work. The source says:
The results from the lipidomic experiments in mice, from the binding assay analyzed in MS and from the analysis of the S. aureus mutants resistant to NAI-112, are consistent with the hypothesis that NAI-112 binds to one or more phosphate-containing lipids and, by doing so, interferes with the processing of these lipids by relevant enzymes. In mice, this interference translates in lower LPA levels.

Where [10] appears, read: class I lanthipeptides, followed by pore formation or membrane disruption, ref [25],[26],[27].

`CC[C@H]1OC(=O)[C@H](C)[C@@H](O[C@H]2C[C@@](C)(OC)[C@@H](O)[C@H](C)O2)[C@H](C)[C@@H](O[C@@H]2O[C@H](C)C[C@H](N(C)C)[C@H]2O)[C@](C)(O)C[C@@H](C)C(=O)[C@H](C)[C@@H](O)[C@]1(C)O` [Erythromycin, erythromycin]: the MIC came out at 0.125 µg/mL in [1] (Staphylococcus aureus, ATCC6538P); 0.125 µg/mL in assay [2] (Staphylococcus aureus); 0.125 µg/mL in assay [3] (Staphylococcus aureus). The “MIC Ratio (R15.1 to wt)” value in [2] is 1.

For `CO[C@H]1/C=C/O[C@@]2(C)Oc3c(C)c(O)c4c(O)c(c(/C=N/N5CCN(C)CC5)c(O)c4c3C2=O)NC(=O)/C(C)=C\C=C\[C@H](C)[C@H](O)[C@@H](C)[C@@H](O)[C@@H](C)[C@H](OC(C)=O)[C@@H]1C` [Rifampicin, rifampicin], the MIC in assay [1] (Staphylococcus aureus, ATCC6538P, wt, MHBC medium, 1 × 10^5 CFU/mL, 37 °C, broth microdilution (CLSI), read-out: MIC) was found to be 0.004 µg/mL; in [2] (Staphylococcus aureus), 0.004 µg/mL; in assay [3] (Staphylococcus aureus), 0.004 µg/mL. In addition, in assay [2], the “MIC Ratio (R15.1 to wt)” value was found to be 1.

For the compound `CN[C@H](CC(C)C)C(=O)N[C@H]1C(=O)N[C@@H](CC(N)=O)C(=O)N[C@H]2C(=O)N[C@H]3C(=O)N[C@H](C(=O)N[C@H](C(=O)O)c4cc(O)cc(O)c4-c4cc3ccc4O)[C@H](O)c3ccc(c(Cl)c3)Oc3cc2cc(c3O[C@@H]2O[C@H](CO)[C@@H](O)[C@H](O)[C@H]2O[C@H]2C[C@](C)(N)[C@H](O)[C@H](C)O2)Oc2ccc(cc2Cl)[C@H]1O` [Vancomycin, vancomycin], the MIC is 0.5 µg/mL in [1] (wt, MHBC medium, 1 × 10^5 CFU/mL, 37 °C, broth microdilution (CLSI)); 2 µg/mL in [2] (R15.5, MHBC medium, 1 × 10^5 CFU/mL, 37 °C, broth microdilution (CLSI)); 1 µg/mL in assay [3] (R8.1, MHBC medium, 1 × 10^5 CFU/mL, 37 °C, broth microdilution (CLSI)). Also, the “shift in MIC relative to wt, in words” value in [2] (R15.5) and in [3] (R8.1) was “modest but consistent shift” in each case. In assay [2], the “MIC Ratio (R15.1 to wt)” value is 4. In [4] (ref [14],[15]), the “binding to lipid II” value is “bind to the essential peptidoglycan precursor lipid II”.

For the compound cinnamycin, the “binding to phosphatidylethanolamine-containing lipids” value in assay [5] is “bind to phosphatidylethanolamine-containing lipids”.

As to duramycin, in assay [5], the “binding to phosphatidylethanolamine-containing lipids” value is listed as “bind to phosphatidylethanolamine-containing lipids”.

As to gallidermin, the “binding to lipid II” value in assay [4] (setting [10]) is listed as “bind to lipid II”.

As to labyrinthopeptin A2, the “activity in a neuropathic pain model” value in assay [6] is on record as “highly active”. In assay [7], the antiviral activity result is recorded as “moderate antiviral activity”.

With lacticin 3147, the “complex with lipid II” value in assay [4] (through mersacidin-like component, ref [33]) is recorded as “form a complex with lipid II”.

Consider lysophosphatidic acid [LPA], for which the TRPV1 receptor activation result in assay [8] (ref [10],[11]) was “activates the TRPV1 receptor”. In addition, the “direct binding to TRPV1 ion channel” value in assay [8] (ref [24]) is given as “LPA binding directly to an ion channel”. For the same compound, the results for the acute pain-like behaviors entry in assay [9] (Trpv1-null animals) and in assay [9] (control mice) were “substantially reduced” and “produces acute pain-like behaviors”, respectively.

With mersacidin, in [4] (class II lantibiotics, ref [28]), the “binding to lipid II” value is on record as “bind to lipid II”.

Regarding nisin, the “binding to lipid II” value in assay [4] (setting [10]) is recorded as “bind to lipid II”. Moreover, the “binding to pyrophosphate cage of lipid II” value in [4] (in membranes of bacterial cells, ref [34]) is recorded as “binding of nisin to the pyrophosphate cage of lipid II”.

With ramoplanin, the MIC is given as 0.06 µg/mL in assay [1] (wt, in the presence of 0.02% BSA, MHBC medium, 1 × 10^5 CFU/mL, 37 °C); 0.25 µg/mL in assay [2] (R15.5, in the presence of 0.02% BSA, MHBC medium, 1 × 10^5 CFU/mL, 37 °C); 0.25 µg/mL in assay [3] (R8.1, in the presence of 0.02% BSA, MHBC medium, 1 × 10^5 CFU/mL, 37 °C). Besides, the “shift in MIC relative to wt, in words” value in [2] (R15.5) and in assay [3] (R8.1) was “modest but consistent shift” each time. Besides, the “MIC Ratio (R15.1 to wt)” value in assay [2] (in the presence of 0.02% BSA) is given as 4. Moreover, the “binding to lipid II” value in assay [4] (ref [14],[15]) was “bind to the essential peptidoglycan precursor lipid II”.
